Starred links: 1 amine or outer side, 2 acyl side, 3 side chain; linkers in the order of their positions; H or OH if unused. Positions of bridges follow the written chain, without caps; N, C: chain ends. Non-standard residues stand in square brackets, D forms with d. Residues, ends and D or L forms follow the SMILES beside them. *: point of attachment. Pyridine(2,6-diCH2) = c1cc(C[*:1])nc(C[*:2])c1; X3 = O=C([C@H](Cc1ccccc1[*:3])N[*:1])[*:2]; mXylylene = c1cc(C[*:1])cc(C[*:2])c1; oXylylene = c1ccc(C[*:2])c(C[*:1])c1; X2 = c1ccc2cc(C[*:2])c(C[*:1])cc2c1; Stearoyl = CCCCCCCCCCCCCCCCCC(=O)*; pXylylene = c1cc(C[*:2])ccc1C[*:1]; βAla = NCCC(=O)O Where only a bound is given, the exact number is not on record here.

Sequence of Keap1-Maltose Binding Protein (MBP tag) (Q14145 whole entry): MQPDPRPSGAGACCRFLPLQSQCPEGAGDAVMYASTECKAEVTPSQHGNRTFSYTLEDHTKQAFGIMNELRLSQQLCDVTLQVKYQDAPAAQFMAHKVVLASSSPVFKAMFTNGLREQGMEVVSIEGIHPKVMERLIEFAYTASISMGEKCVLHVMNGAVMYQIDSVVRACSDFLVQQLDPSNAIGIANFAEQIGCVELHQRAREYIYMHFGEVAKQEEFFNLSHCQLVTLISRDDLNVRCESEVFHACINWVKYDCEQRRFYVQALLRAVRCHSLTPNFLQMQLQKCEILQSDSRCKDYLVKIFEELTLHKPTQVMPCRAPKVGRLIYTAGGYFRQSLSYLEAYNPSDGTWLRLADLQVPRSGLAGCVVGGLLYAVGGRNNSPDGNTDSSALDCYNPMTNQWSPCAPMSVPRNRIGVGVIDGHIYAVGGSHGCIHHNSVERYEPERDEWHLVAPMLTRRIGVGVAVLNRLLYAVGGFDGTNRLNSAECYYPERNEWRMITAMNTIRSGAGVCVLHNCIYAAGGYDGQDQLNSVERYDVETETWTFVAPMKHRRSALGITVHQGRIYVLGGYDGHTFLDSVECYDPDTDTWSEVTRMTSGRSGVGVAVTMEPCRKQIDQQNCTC

The first experiment has as its target Keap1-Maltose Binding Protein (MBP tag) (Homo sapiens, UniProt Q14145). In words: Nrf2-Keap1 HTRF (TR-FRET) binding assay: displacement of biotinylated ETGE peptide from Keap1-MBP.
Details: not given
Background: Time-resolved FRET reads energy transfer from a long-lived donor to a nearby acceptor.
Take `CC(C)C[C@@H]1NC(=O)[C@@H]2CCCN2C(=O)[C@H](CC(C)C)NC(=O)[C@@H]2CSCc3ccc(cc3)CSC[C@H](NC(=O)[C@H](CCC(N)=O)NC1=O)C(=O)N[C@@H](CC(=O)O)C(=O)N[C@@H](CCC(=O)O)C(=O)N[C@@H](CCC(=O)O)C(=O)N[C@@H]([C@@H](C)O)C(=O)NCC(=O)N[C@@H](CCC(=O)O)C(=O)N2` [Example 5, {[&^1Leu-Gln-Cys(&^2)-Asp-Glu-Glu-Thr-Gly-Glu-Cys(&^3)-Leu-Pro&^1][&^2(1,4-phenylenediyl)dimethylene&^3]}] (cyclo(CDEETGECLPLQ); linker 1-8 via pXylylene): the IC50 (in general, the point on the concentration scale where inhibition reaches its midpoint) was in the range of 1 to 100 nM.

For the molecule `CCCCCCCCCCCCCCCCCCCC(=O)N[C@H]1C[C@H]2C(=O)N[C@@H](CCC(N)=O)C(=O)N[C@H]3CSCc4ccccc4CSC[C@H](NC(=O)[C@H](CCC(=O)O)NC(=O)CNC(=O)[C@H]([C@@H](C)O)NC(=O)[C@H](CCC(=O)O)NC(=O)[C@@H]4CCCN4C(=O)[C@H](CC(=O)O)NC3=O)C(=O)N[C@@H](CC(C)C)C(=O)N3CCC[C@@H]3C(=O)N2C1` [Example 90, {[&^1Pro((4S)-NH-arachidyl)-Gln-Cys(&^2)-Asp-Pro-Glu-Thr-Gly-Glu-Cys(&^3)-Leu-D-Pro&^1][&^2(1,2-phenylenediyl)dimethylene&^3]}], the IC50 is less than 1 nM.

For `CCCCCCCCCCCCCCCCCCCCCC(=O)N[C@H]1C[C@H]2C(=O)N[C@@H](CCC(N)=O)C(=O)N[C@H]3CSCc4ccccc4CSC[C@H](NC(=O)[C@H](CCC(=O)O)NC(=O)CNC(=O)[C@H]([C@@H](C)O)NC(=O)[C@H](CCC(=O)O)NC(=O)[C@@H]4CCCN4C(=O)[C@H](CC(=O)O)NC3=O)C(=O)N[C@@H](CC(C)C)C(=O)N3CCC[C@@H]3C(=O)N2C1` [Example 89, {[&^1Pro((4S)-NH-behenyl)-Gln-Cys(&^2)-Asp-Pro-Glu-Thr-Gly-Glu-Cys(&3)-Leu-D-Pro&^1][&^2(1,2-phenylenediyl)dimethylene&^3]}], the IC50 was less than 1 nM.

Staying with this experiment, now noted: HTRF (TR-FRET); displacement of ETGE-biotin from Keap1-MBP; values banded into grades; read-out: Binding (IC50) ETGE-Keap1.
On to `Cc1cc(C)c2c(C)c1CSC[C@@H](C(=O)N[C@@H](CC(C)C)C(=O)N[C@@H](CC(C)C)C(=O)NCCC(=O)N[C@@H](CCCNC(=N)N)C(=O)N[C@@H](CCCCN)C(=O)N[C@@H](CCCCN)C(=O)N[C@@H](CCCNC(=N)N)C(=O)N[C@@H](CCCNC(=N)N)C(=O)N[C@@H](CCC(N)=O)C(=O)N[C@@H](CCCNC(=N)N)C(=O)N[C@@H](CCCNC(=N)N)C(=O)N[C@@H](CCCNC(=N)N)C(N)=O)NC(=O)[C@H](CCC(=O)O)NC(=O)CNC(=O)[C@H]([C@@H](C)O)NC(=O)[C@H](CCC(=O)O)NC(=O)[C@@H]1CCCN1C(=O)[C@H](CC(=O)O)NC(=O)[C@@H](NC(=O)[C@H](CC(C)C)NC(=O)[C@@H](N)CC(C)C)CSC2` [Example 59], for which the IC50 was less than 1 nM.

As to `CC(C)C[C@H](NC(=O)[C@@H]1CSCc2ccccc2CSC[C@H](NC(=O)[C@H](CCC(N)=O)NC(=O)[C@@H](N)CC(C)C)C(=O)N[C@@H](CC(=O)O)C(=O)N2CCC[C@H]2C(=O)N[C@@H](CCC(=O)O)C(=O)N[C@@H]([C@@H](C)O)C(=O)NCC(=O)N[C@@H](CCC(=O)O)C(=O)N1)C(=O)N1CCC[C@H]1C(=O)NCCC(=O)N[C@@H](CCCNC(=N)N)C(=O)N[C@@H](CCCCN)C(=O)N[C@@H](CCCCN)C(=O)N[C@@H](CCCNC(=N)N)C(=O)N[C@@H](CCCNC(=N)N)C(=O)N[C@@H](CCC(N)=O)C(=O)N[C@@H](CCCNC(=N)N)C(=O)N[C@@H](CCCNC(=N)N)C(=O)N[C@@H](CCCNC(=N)N)C(N)=O` [Example 34], the 50% inhibitory concentration (IC50) was in the range of 1 to 100 nM.

In the case of `CCCCCCCCCCCCCCCCCC(=O)NCCC(=O)N[C@@H](CC(C)C)C(=O)N[C@@H](CCC(N)=O)C(=O)N[C@H]1CSCc2cccc(c2)CSC[C@@H](C(=O)N[C@@H](CC(C)C)C(=O)N2CCC[C@H]2C(=O)O)NC(=O)[C@H](CCC(=O)O)NC(=O)CNC(=O)[C@H]([C@@H](C)O)NC(=O)[C@H](CCC(=O)O)NC(=O)[C@H](C)NC(=O)[C@H](CC(=O)O)NC1=O` [Example 39, {[Stearyl-βAla-Leu-Gln-Cys(&^1)-Asp-Ala-Glu-Thr-Gly-Glu-Cys(&^2)-Leu-Pro-OH][&^1(1,3-phenylenediyl)dimethylene&^2]}] ({Stearoyl-βAla}-LQCDAETGECLP-OH; linker 3-10 via mXylylene), the IC50 is 1 to 100 nM.

Consider `CC(=O)N[C@H]1CSCc2cc3ccccc3cc2CSC[C@@H](C(N)=O)NC(=O)[C@H](CCC(=O)O)NC(=O)CNC(=O)[C@H]([C@@H](C)O)NC(=O)[C@H](CCC(=O)O)NC(=O)[C@H](CCC(=O)O)NC(=O)[C@H](CC(=O)O)NC1=O` [Example 27, {[Acetyl-Cys(&^1)-Asp-Glu-Glu-Thr-Gly-Glu-Cys(&^2)-NH2][&^1(naphthalene)2,3-diyldimethylene&^2]}] (Ac-CDEETGEC-NH2; linker 1-8 via X2), for which the IC50 was 1 to 100 nM.

On to `CC(C)C[C@H](NC(=O)[C@@H]1CSCc2ccccc2CSC[C@H](NC(=O)[C@H](CCC(N)=O)NC(=O)[C@@H](N)CC(C)C)C(=O)N[C@@H](CC(=O)O)C(=O)N[C@@H](Cc2ccc(F)cc2)C(=O)N[C@@H](CCC(=O)O)C(=O)N[C@@H]([C@@H](C)O)C(=O)NCC(=O)N[C@@H](CCC(=O)O)C(=O)N1)C(=O)N1CCC[C@H]1C(=O)NCCC(=O)N[C@@H](CCCNC(=N)N)C(=O)N[C@@H](CCCCN)C(=O)N[C@@H](CCCCN)C(=O)N[C@@H](CCCNC(=N)N)C(=O)N[C@@H](CCCNC(=N)N)C(=O)N[C@@H](CCC(N)=O)C(=O)N[C@@H](CCCNC(=N)N)C(=O)N[C@@H](CCCNC(=N)N)C(=O)N[C@@H](CCCNC(=N)N)C(N)=O` [Example 71], for which the IC50 lay within 1 to 100 nM.

Consider `CC(=O)N[C@H]1Cc2ccccc2SC[C@@H](C(N)=O)NC(=O)[C@H](CCC(=O)O)NC(=O)CNC(=O)[C@H]([C@@H](C)O)NC(=O)[C@H](CCC(=O)O)NC(=O)[C@H](CCC(=O)O)NC(=O)[C@H](CC(=O)O)NC1=O` [Example 23, Acetyl-Phe(o-&^1)-Asp-Glu-Glu-Thr-Gly-Glu-Cys(&^1)-NH2] (Ac-[X3]DEETGEC-NH2; thioether 1-8), for which the IC50 fell in the range of 1 to 100 nM.

In the case of `CCCCCCCCCCCCCCCCCC(=O)NCCC(=O)N[C@@H](CCCCN)C(=O)N[C@@H](CCC(N)=O)C(=O)N[C@H]1CSCc2ccccc2CSC[C@@H](C(=O)N[C@@H](CC(C)C)C(=O)N2CCC[C@H]2C(N)=O)NC(=O)[C@H](CCC(=O)O)NC(=O)CNC(=O)[C@H]([C@@H](C)O)NC(=O)[C@H](CCC(=O)O)NC(=O)[C@@H]2CCCN2C(=O)[C@H](CC(=O)O)NC1=O` [Example 47, {[Stearyl-βAla-Lys-Gln-Cys(&^1)-Asp-Pro-Glu-Thr-Gly-Glu-Cys(&^2)-Leu-Pro-NH2][&^1(1,2-phenylenediyl)dimethylene&^2]}], the IC50 was less than 1 nM.

Regarding `CCCCCCCCCCCCCCCCCC(=O)NCCC(=O)N[C@@H](CC(C)C)C(=O)N[C@@H](CCC(N)=O)C(=O)N[C@H]1CSCc2cccc(c2)CSC[C@@H](C(=O)N[C@@H](CC(C)C)C(=O)N2CCC[C@H]2C(=O)O)NC(=O)[C@H](CCC(=O)O)NC(=O)CNC(=O)[C@H]([C@@H](C)O)NC(=O)[C@H](CCC(=O)O)NC(=O)[C@@H]2CCCN2C(=O)[C@H](CC(=O)O)NC1=O` [Example 37, {[Stearyl-βA1a-Leu-Gln-Cys(&^1)-Asp-Pro-Glu-Thr-Gly-Glu-Cys(&^2)-Leu-Pro-OH][&^1(1,3-phenylenediyl)dimethylene&^2]}] ({Stearoyl-βAla}-LQCDPETGECLP-OH; linker 3-10 via mXylylene), the IC50 was 1 to 100 nM.

As to `CC(C)C[C@H](NC(=O)[C@@H]1CSCc2cc3ccccc3cc2CSC[C@H](NC(=O)[C@H](CCC(N)=O)NC(=O)[C@@H](N)CC(C)C)C(=O)N[C@@H](CC(=O)O)C(=O)N2CCC[C@H]2C(=O)N[C@@H](CCC(=O)O)C(=O)N[C@@H]([C@@H](C)O)C(=O)NCC(=O)N[C@@H](CCC(=O)O)C(=O)N1)C(=O)N1CCC[C@H]1C(=O)NCCC(=O)N[C@@H](CCCNC(=N)N)C(=O)N[C@@H](CCCNC(=N)N)C(=O)N[C@@H](CCCNC(=N)N)C(=O)N[C@@H](CCCNC(=N)N)C(=O)N[C@@H](CCCNC(=N)N)C(=O)N[C@@H](CCCNC(=N)N)C(=O)N[C@@H](CCCNC(=N)N)C(=O)N[C@@H](CCCNC(=N)N)C(N)=O` [Example 68, {[H-Leu-G1n-Cys(&^1)-Asp-Pro-Glu-Thr-G1y-Glu-Cys(&^2)-Leu-Pro-βAla-Arg8-NH2][&^1(naphthalene)2,3-diyldimethylene&^2]}], the IC50 lay within 1 to 100 nM.

Take `CCCCCCCCCCCCCCCCCC(=O)NCCC(=O)N[C@@H](CC(C)C)C(=O)N[C@@H](CCC(N)=O)C(=O)N[C@H]1CSCc2cc3ccccc3cc2CSC[C@@H](C(=O)N[C@@H](CC(C)C)C(=O)N2CCC[C@H]2C(=O)O)NC(=O)[C@H](CCC(=O)O)NC(=O)CNC(=O)[C@H]([C@@H](C)O)NC(=O)[C@H](CCC(=O)O)NC(=O)[C@H](C)NC(=O)[C@H](CC(=O)O)NC1=O` [Example 38, {[Stearyl-βAla-Leu-Gln-Cys(&^1)-Asp-Ala-Glu-Thr-Gly-Glu-Cys(&^2)-Leu-Pro-OH][&^1(naphthalene)2,3-diyldimethylene&^2]}] ({Stearoyl-βAla}-LQCDAETGECLP-OH; linker 3-10 via X2): the IC50 was in the range of 1 to 100 nM.

With `CCCCCCCCCCCCCCCCCC(=O)NCCC(=O)N[C@@H](CC(C)C)C(=O)N[C@@H](CCC(N)=O)C(=O)N[C@H]1CSCc2cccc(n2)CSC[C@@H](C(=O)N[C@@H](CC(C)C)C(=O)N2CCC[C@H]2C(N)=O)NC(=O)[C@H](CCC(=O)O)NC(=O)CNC(=O)[C@H]([C@@H](C)O)NC(=O)[C@H](CCC(=O)O)NC(=O)[C@@H]2CCCN2C(=O)[C@H](CC(=O)O)NC1=O` [Example 62, {[Stearyl-βAla-Leu-Gln-Cys(&^1)-Asp-Pro-Glu-Thr-Gly-Glu-Cys(&^2)-Leu-Pro-NH2][&^1(pyridine)2,6-diyldimethylene&^2]}] ({Stearoyl-βAla}-LQCDPETGECLP-NH2; linker 3-10 via Pyridine(2,6-diCH2)), the IC50 lay in the range of 1 to 100 nM.

As for `CCCCCCCCCCCCCCCCCC(=O)NCCC(=O)N[C@@H](CCCCN)C(=O)N[C@@H](CCCCN)C(=O)N[C@H]1CSCc2ccccc2CSC[C@@H](C(=O)N[C@@H](CCCCN)C(=O)N[C@@H](CCCCN)C(N)=O)NC(=O)[C@H](CCC(=O)O)NC(=O)CNC(=O)[C@H]([C@@H](C)O)NC(=O)[C@H](CCC(=O)O)NC(=O)[C@@H]2CCCN2C(=O)[C@H](CC(=O)O)NC1=O` [Example 53, {[Stearyl-βAla-Lys-Lys-Cys(&^1)-Asp-Pro-Glu-Thr-Gly-Glu-Cys(&^2)-Lys-Lys-NH2][&^1(1,2-phenylenediyl)dimethylene&^2]}] ({Stearoyl-βAla}-KKCDPETGECKK-NH2; linker 3-10 via oXylylene), the IC50 lay within 1 to 100 nM.

Source of the values: patent publication US20200255478A1, “NOVEL COMPOUNDS ACTIVATING THE NRF2 PATHWAY” (Almirall, S.A., priority 2017, published 2020).
